In US8916599B2, “1H-benz imidazole-5-carboxamides as anti-inflammatory agents” (Orexo AB, priority 2008, dated 2014) one finds inhibition data, which are given here for 33 compounds.

The target in this assay is T1, recombinant human mPGES-1 (Homo sapiens, UniProt O14684).
T1 construct: made in house; host or cells: Rosetta E. coli (microsomal/membrane fraction)
T1 sequence (O14684 1-152): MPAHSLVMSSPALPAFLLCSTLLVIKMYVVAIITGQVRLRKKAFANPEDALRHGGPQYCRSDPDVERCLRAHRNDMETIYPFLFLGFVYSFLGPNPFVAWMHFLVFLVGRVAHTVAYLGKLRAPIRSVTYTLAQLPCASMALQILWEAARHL
The assay is described as follows: mPGES-1 inhibition test (microsomes, PGH2 substrate, HTRF detection of PGE2). It is filed as biochemical. The following applies: inhibition of mPGES-1 at 10 μM. The method in brief:
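PGE2 formed from PGH2 in one minute by E. coli-expressed microsomal enzyme (pH 7.4, 2.5 mM GSH) was measured by competitive HTRF against a synthetic PGE2 standard curve. Compounds were preincubated 25 min at room temperature.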
Consider `Cn1c(Nc2c(F)cccc2Cl)nc2cc(C(=O)NC3CCC(C(C)(C)C)CC3)c(F)cc21` (stereo not drawn) [Example 354, N-(4-tert.-Butylcyclohexyl)-2-(2-chloro-6-fluorophenylamino)-6-fluoro-1-methyl-1H-benzimidazole-5-carboxamide], for which the inhibition at 10 µM is 100%.

As for `O=C(NCc1ccc(C(F)(F)F)cn1)c1ccc2[nH]c(Nc3c(Cl)cccc3Cl)nc2c1` [Example 222, 2-(2,6-Dichloro-phenylamino)-1H-benzimidazole-5-carboxylic acid (5-trifluoromethyl-pyridin-2-ylmethyl)-amide], the inhibition at 10 µM was found to be 74%.

For the compound `O=C(NCC1CCCC1)c1ccc2[nH]c(Nc3c(Cl)cccc3Cl)nc2c1` [Example 219, 2-(2,6-Dichloro-phenylamino)-1H-benzimidazole-5-carboxylic acid cyclopentylmethyl-amide], the inhibition at 10 µM turned out to be 100%.

Consider `O=C(NC1CCc2ccccc2C1)c1cc2[nH]c(Nc3c(Cl)cccc3Cl)nc2cc1F` (stereo not drawn) [Example 150, 2-(2,6-Dichloro-phenylamino)-6-fluoro-3H-benzimidazole-5-carboxylic acid (1,2,3,4-tetrahydro-naphthalen-2-yl)-amide], for which the inhibition at 10 µM worked out at 100%.

Regarding `CC(C)NC(=O)c1cc(Br)c2c(c1)nc(Nc1c(Cl)cccc1Cl)n2C` [Example 353, 7-Bromo-2-(2,6-dichloro-phenylamino)-1-methyl-1H-benzimidazole-5-carboxylic acid isopropylamide], the inhibition at 10 µM worked out at 75%.

Turning to `O=C(NC1CCCCC1C(F)(F)F)c1ccc2[nH]c(Nc3c(Cl)cccc3Cl)nc2c1` (stereo not drawn) [Example 228, 2-(2,6-Dichloro-phenylamino)-1H-benzimidazole-5-carboxylic acid (2-trifluoromethyl-cyclohexyl)-amide], the inhibition at 10 µM was 86%.

Take `N#Cc1ccnc(NC(=O)c2ccc3[nH]c(Nc4c(Cl)cccc4Cl)nc3c2)c1` [Example 539, N-(4-Cyanopyridin-2-yl)-2-(2,6-dichlorophenylamino)-1H-benzimidazole-5-carboxamide]: the inhibition at 10 µM turned out to be 94%.

Regarding `O=C(N[C@H]1CC[C@H](C(F)F)CC1)c1cc2nc(Nc3c(Cl)cccc3Cl)[nH]c2cc1F` [Example 496, 2-(2,6-Dichlorophenylamino)-N-((1r,4r)-4-(difluoromethyl)cyclohexyl)-6-fluoro-1H-benzimidazole-5-carboxamide], the inhibition at 10 µM was found to be 100%.

For the compound `O=C(Nc1ccc(Br)cc1)c1ccc2[nH]c(Nc3cccc(Cl)c3Cl)nc2c1` [Example 108, 2-(2,3-Dichloro-phenylamino)-1H-benzimidazole-5-carboxylic acid (4-bromo-phenyl)-amide], the inhibition at 10 µM was found to be 100%.

For the compound `Cn1c(Nc2c(Cl)cccc2Cl)nc2cc(C(=O)NCC3CCC3)c(F)cc21` [Example 516, N-(Cyclobutylmethyl)-2-(2,6-dichlorophenylamino)-6-fluoro-1-methyl-1H-benzimidazole-5-carboxamide], the inhibition at 10 µM came out at 97%.

In the case of `Cn1c(Nc2c(F)cccc2Cl)nc2cc(C(=O)NCC3CC3)c(F)cc21` [Example 546, 2-(2-Chloro-6-fluorophenylamino)-N-(cyclopropylmethyl)-6-fluoro-1-methyl-1H-benzimidazole-5-carboxamide], the inhibition at 10 µM amounted to 85%.

Regarding `Cn1c(Nc2c(Cl)cccc2Cl)nc2cc(C(=O)NCc3cccc(C(F)(F)F)n3)ccc21` [Example 247, 2-(2,6-Dichloro-phenylamino)-1-methyl-1H-benzimidazole-5-carboxylic acid (6-trifluoromethyl-pyridin-2-ylmethyl)-amide], the inhibition at 10 µM worked out at 92%.

As to `COc1cc2[nH]c(Nc3c(Cl)ccc(CC#N)c3Cl)nc2cc1C(=O)Nc1ccc(Br)cc1` [Example 639, 2-(2,6-Dichloro-3-cyanomethyl-phenylamino)-N-(4-bromphenyl)-6-methoxy-1H-benzimidazol-5-carboxamide], the inhibition at 10 µM came to 99%.

For `O=C(N[C@H]1CC[C@H](C(F)(F)F)CC1)c1ccc2[nH]c(Nc3c(Cl)cccc3Cl)nc2c1` [Example 161, 2-(2,6-Dichloro-phenylamino)-1H-benzimidazole-5-carboxylic acid (trans-4-trifluoromethyl-cyclohexyl)-amide], the inhibition at 10 µM is 98%.

In the case of `Cc1cnc(CNC(=O)c2cc3nc(Nc4c(Cl)cccc4Cl)n(C)c3cc2F)c(C)c1` [Example 470, 2-(2,6-Dichlorophenylamino)-N-((3,5-dimethylpyridin-2-yl)methyl)-6-fluoro-1-methyl-1H-benzimidazole-5-carboxamide], the inhibition at 10 µM was found to be 100%.

Consider `Cn1c(Nc2c(Cl)cccc2Cl)nc2cc(C(=O)Nc3cc(Cl)ccn3)cc(Br)c21` [Example 492, 7-Bromo-N-(4-chloropyridin-2-yl)-2-(2,6-dichlorophenylamino)-1-methyl-1H-benzimidazole-5-carboxamide], for which the inhibition at 10 µM turned out to be 98%.

`CC(C)CCCNC(=O)c1cc2nc(Nc3c(Cl)cccc3Cl)n(C)c2cc1F` [Example 408, 2-(2,6-Dichlorophenylamino)-6-fluoro-1-methyl-N-(4-methylpentyl)-1H-benzimidazole-5-carboxamide]: the inhibition at 10 µM is 100%.

For `COc1cc2[nH]c(Nc3c(Cl)cccc3Cl)nc2cc1C(=O)NCc1ncccc1Cl` [Example 630], the inhibition at 10 µM was determined as 100%.

For `O=C(Nc1cc(Cl)ccc1Cl)c1ccc2[nH]c(Nc3c(Cl)cccc3Cl)nc2c1` [Example 281, 2-(2,6-Dichloro-phenylamino)-1H-benzimidazole-5-carboxylic acid (2,5-dichloro-phenyl)-amide], the inhibition at 10 µM turned out to be 100%.

Turning to `Cn1c(Nc2c(Cl)cccc2Cl)nc2cc(C(=O)NCCC3CCC3)c(F)cc21` [Example 397, N-(2-Cyclobutylethyl)-2-(2,6-dichlorophenylamino)-6-fluoro-1-methyl-1H-benzimidazole-5-carboxamide], the inhibition at 10 µM came to 99%.

As to `Cc1cc(NC(=O)c2ccc3nc(Nc4c(Cl)cccc4Cl)[nH]c3c2)ccn1` [Example 193, 2-(2,6-Dichloro-phenylamino)-3H-benzimidazole-5-carboxylic acid (2-methyl-pyridin-4-yl)-amide], the inhibition at 10 µM stood at 99%.

As for `O=C(Nc1ccc(Br)cc1)c1cc2nc(Nc3c(F)ccc(Cl)c3Cl)[nH]c2cc1OCC(F)(F)F` [Example 588, N-(4-Bromo-phenyl)-2-(2,3-dichloro-6-fluoro-phenylamino)-6-(2,2,2-trifluoroethoxy)-1H-benzimidazole-5-carboxamide], the inhibition at 10 µM is 100%.

As for `Cn1c(Nc2c(Cl)cccc2Cl)nc2cc(C(=O)NC3COc4ccccc4C3)c(F)cc21` (stereo not drawn) [Example 160, 2-(2,6-Dichloro-phenylamino)-6-fluoro-1-methyl-1H-benzimidazole-5-carboxylic acid chroman-3-ylamide], the inhibition at 10 µM was 98%.

For the compound `Cn1c(Nc2c(Cl)cccc2Cl)nc2cc(C(=O)Nc3ccc(Cl)cn3)ccc21` [Example 494, N-(5-Chloropyridin-2-yl)-2-(2,6-dichlorophenylamino)-1-methyl-1H-benzimidazole-5-carboxamide], the inhibition at 10 µM was 99%.

As to `Cc1cc(C)nc(NC(=O)c2ccc3c(c2)nc(Nc2c(Cl)cccc2Cl)n3C)c1` [Example 201, 2-(2,6-Dichloro-phenylamino)-1-methyl-1H-benzimidazole-5-carboxylic acid (4,6-dimethyl-pyridin-2-yl)-amide], the inhibition at 10 µM came out at 100%.

For `CC1(C)CCC(NC(=O)c2ccc3[nH]c(Nc4c(Cl)cccc4Cl)nc3c2)CC1` [Example 64, 2-(2,6-Dichloro-phenylamino)-1H-benzimidazole-5-carboxylic acid (4,4-dimethyl-cyclohexyl)-amide], the inhibition at 10 µM came to 97%.

For `Cn1c(Nc2cc(Cl)ccc2Cl)nc2cc(C(=O)Nc3ccc(Br)cc3)ccc21` [Example 380, N-(4-Bromophenyl)-2-(2,5-dichlorophenylamino)-1-methyl-1H-benzimidazole-5-carboxamide], the inhibition at 10 µM was 100%.

As for `O=C(Nc1cccc(Cl)c1)c1cc2nc(Nc3c(Cl)ccc(Cl)c3F)[nH]c2cc1F` [Example 598, 2-(3,6-Dichloro-2-fluoro-phenylamino)-N-(3-chlorphenyl)-6-fluoro-1H-benzimidazole-5-carboxamide], the inhibition at 10 µM was determined as 100%.

`Cn1c(Nc2c(Cl)cccc2Cl)nc2cc(C(=O)NCc3ccncc3)ccc21` [Example 262, 2-(2,6-Dichloro-phenylamino)-1-methyl-1H-benzimidazole-5-carboxylic acid (2-pyridin-4-yl-methyl)-amide]: the inhibition at 10 µM was 61%.

For `CN(C)CCCn1c(Nc2c(Cl)cccc2Cl)nc2cc(C(=O)Nc3cc(Cl)ccn3)ccc21` [Example 276, 2-(2,6-Dichloro-phenylamino)-1-(3-dimethylamino-propyl)-1H-benzimidazole-5-carboxylic acid (4-chloro-pyridin-2-yl)-amide], the inhibition at 10 µM worked out at 100%.

`CCC1CCC(NC(=O)c2cc3nc(Nc4c(Cl)cccc4Cl)n(C)c3cc2F)CC1` (stereo not drawn) [Example 437, 2-(2,6-Dichlorophenylamino)-N-(4-ethylcyclohexyl)-6-fluoro-1-methyl-1H-benzimidazole-5-carboxamide]: the inhibition at 10 µM was determined as 97%.

As to `Cn1c(Nc2c(Cl)cccc2Cl)nc2cc(C(=O)NC3(C#N)CCCCC3)ccc21` [Example 257, 2-(2,6-Dichloro-phenylamino)-1-methyl-1H-benzimidazole-5-carboxylic acid (1-cyano-cyclohexyl)-amide], the inhibition at 10 µM came out at 100%.

Turning to `O=C(Nc1cccc(Cl)c1)c1cc2[nH]c(Nc3c(Cl)cccc3Cl)nc2cc1F` [Example 143, 2-(2,6-Dichloro-phenylamino)-6-fluoro-3H-benzimidazole-5-carboxylic acid (3-chloro-phenyl)-amide], the inhibition at 10 µM turned out to be 100%.
